Numbers after ± are expanded uncertainties.
Experiments:
[1] = 298.15 K; 101.33 kPa; Liquid; Pycnometric method
[2] = excess molar enthalpy (molar enthalpy of mixing); xn = mol fraction of the nth substance listed; settings: 298.15 K, 101 kPa, Liquid, Calvet calorimetry

For `CNc1ccccc1` [N-methylaniline], which mass density [1] is on record?
The mass density was 982.237 ± 20 kg/m3.

For `CNc1ccccc1` [N-methylaniline] + C1CCCCC1, which excess molar enthalpy ([2]; x1 = 0.0978) is on record?
Its excess molar enthalpy is 0.197 ± 0.0043 kcal/mol.

What about the excess molar enthalpy ([2]; x1 = 0.1987) of the same compound?
Its excess molar enthalpy is 0.31 ± 0.00669 kcal/mol.

And the excess molar enthalpy ([2]; x1 = 0.2934)?
The excess molar enthalpy was 0.364 ± 0.00789 kcal/mol.

What about the excess molar enthalpy ([2]; x1 = 0.4002) of the same compound?
The excess molar enthalpy was 0.385 ± 0.00813 kcal/mol.

What about the excess molar enthalpy ([2]; x1 = 0.4937) of the same compound?
The excess molar enthalpy was 0.389 ± 0.00837 kcal/mol.

And the excess molar enthalpy ([2]; x1 = 0.5934)?
The excess molar enthalpy was 0.368 ± 0.00789 kcal/mol.

What about the excess molar enthalpy ([2]; x1 = 0.6935) of the same compound?
The excess molar enthalpy was 0.313 ± 0.00669 kcal/mol.

What about the excess molar enthalpy ([2]; x1 = 0.7953) of the same compound?
The excess molar enthalpy was 0.232 ± 0.00502 kcal/mol.

And the excess molar enthalpy ([2]; x1 = 0.8938)?
Its excess molar enthalpy is 0.136 ± 0.00287 kcal/mol.

What does the source list for `CNc1ccccc1` [N-methylaniline] + CCCCCCC?
excess molar enthalpy ([2]; x1 = 0.102): 0.196 ± 0.0043 kcal/mol; excess molar enthalpy ([2]; x1 = 0.1982): 0.309 ± 0.00669 kcal/mol; excess molar enthalpy ([2]; x1 = 0.2968): 0.368 ± 0.00789 kcal/mol; excess molar enthalpy ([2]; x1 = 0.3935): 0.395 ± 0.00837 kcal/mol; excess molar enthalpy ([2]; x1 = 0.4983): 0.401 ± 0.0086 kcal/mol; excess molar enthalpy ([2]; x1 = 0.5982): 0.382 ± 0.00813 kcal/mol; excess molar enthalpy ([2]; x1 = 0.6934): 0.344 ± 0.00741 kcal/mol; excess molar enthalpy ([2]; x1 = 0.7941): 0.269 ± 0.00574 kcal/mol; excess molar enthalpy ([2]; x1 = 0.8939): 0.162 ± 0.00359 kcal/mol

With `CNc1ccccc1` [N-methylaniline] + CCCCCCCC as the compound, how does the excess molar enthalpy ([2]; x1 = 0.1045) read?
The excess molar enthalpy was 0.204 ± 0.0043 kcal/mol.

What about the excess molar enthalpy ([2]; x1 = 0.2002) of the same compound?
Its excess molar enthalpy is 0.322 ± 0.00693 kcal/mol.

And the excess molar enthalpy ([2]; x1 = 0.303)?
Its excess molar enthalpy is 0.388 ± 0.00837 kcal/mol.

And the excess molar enthalpy ([2]; x1 = 0.4117)?
The excess molar enthalpy was 0.419 ± 0.00884 kcal/mol.

What about the excess molar enthalpy ([2]; x1 = 0.4956) of the same compound?
The excess molar enthalpy was 0.424 ± 0.00908 kcal/mol.

What about the excess molar enthalpy ([2]; x1 = 0.5965) of the same compound?
Its excess molar enthalpy is 0.405 ± 0.0086 kcal/mol.

What about the excess molar enthalpy ([2]; x1 = 0.6933) of the same compound?
Its excess molar enthalpy is 0.361 ± 0.00765 kcal/mol.

What about the excess molar enthalpy ([2]; x1 = 0.791) of the same compound?
Its excess molar enthalpy is 0.285 ± 0.00621 kcal/mol.

What about the excess molar enthalpy ([2]; x1 = 0.889) of the same compound?
Its excess molar enthalpy is 0.184 ± 0.00406 kcal/mol.

Which excess molar enthalpy ([2]; x1 = 0.1015) does the source give for `CNc1ccccc1` [N-methylaniline] + CCCCCCCCCC here?
The excess molar enthalpy was 0.211 ± 0.00454 kcal/mol.

And the excess molar enthalpy ([2]; x1 = 0.201)?
The excess molar enthalpy was 0.34 ± 0.00717 kcal/mol.

And the excess molar enthalpy ([2]; x1 = 0.2993)?
Its excess molar enthalpy is 0.413 ± 0.00884 kcal/mol.

What about the excess molar enthalpy ([2]; x1 = 0.3848) of the same compound?
Its excess molar enthalpy is 0.448 ± 0.00956 kcal/mol.

And the excess molar enthalpy ([2]; x1 = 0.487)?
The excess molar enthalpy was 0.458 ± 0.0098 kcal/mol.

What about the excess molar enthalpy ([2]; x1 = 0.5963) of the same compound?
Its excess molar enthalpy is 0.44 ± 0.00932 kcal/mol.

And the excess molar enthalpy ([2]; x1 = 0.6951)?
Its excess molar enthalpy is 0.395 ± 0.00837 kcal/mol.

What about the excess molar enthalpy ([2]; x1 = 0.7934) of the same compound?
The excess molar enthalpy was 0.316 ± 0.00669 kcal/mol.

What about the excess molar enthalpy ([2]; x1 = 0.8899) of the same compound?
Its excess molar enthalpy is 0.205 ± 0.0043 kcal/mol.

For `CNc1ccccc1` [N-methylaniline] + Cc1ccccc1, which excess molar enthalpy ([2]; x1 = 0.0991) is on record?
The excess molar enthalpy was 0.0535 ± 0.0012 kcal/mol.

What about the excess molar enthalpy ([2]; x1 = 0.1956) of the same compound?
The excess molar enthalpy was 0.088 ± 0.00191 kcal/mol.

What about the excess molar enthalpy ([2]; x1 = 0.2952) of the same compound?
The excess molar enthalpy was 0.11 ± 0.00239 kcal/mol.

What about the excess molar enthalpy ([2]; x1 = 0.399) of the same compound?
Its excess molar enthalpy is 0.12 ± 0.00263 kcal/mol.

And the excess molar enthalpy ([2]; x1 = 0.4973)?
Its excess molar enthalpy is 0.119 ± 0.00263 kcal/mol.

And the excess molar enthalpy ([2]; x1 = 0.5922)?
Its excess molar enthalpy is 0.111 ± 0.00239 kcal/mol.

And the excess molar enthalpy ([2]; x1 = 0.6882)?
The excess molar enthalpy was 0.0925 ± 0.00215 kcal/mol.

And the excess molar enthalpy ([2]; x1 = 0.7892)?
Its excess molar enthalpy is 0.0686 ± 0.00143 kcal/mol.

And the excess molar enthalpy ([2]; x1 = 0.8851)?
The excess molar enthalpy was 0.0397 ± 0.000956 kcal/mol.

With `C1CCCCC1` [cyclohexane] as the compound, how does the mass density [1] read?
Its mass density is 773.96 ± 20 kg/m3.

With `CCCCCCCCCC` [decane] as the compound, how does the mass density [1] read?
Its mass density is 726.47 ± 20 kg/m3.

With `CCCCCCC` [heptane] as the compound, how does the mass density [1] read?
Its mass density is 679.71 ± 20 kg/m3.

For `CCCCCCCCCCCCCCCC` [hexadecane], which mass density [1] is on record?
Its mass density is 769.91 ± 20 kg/m3.

For `CCCCCCCC` [octane], which mass density [1] is on record?
The mass density was 698.75 ± 20 kg/m3.

For `CCCCCCCCCCCCCC` [tetradecane], which mass density [1] is on record?
The mass density was 759.19 ± 20 kg/m3.

Which mass density [1] does the source give for `Cc1ccccc1` [toluene] here?
Its mass density is 862.346 ± 24 kg/m3.

Reference: the NIST ThermoML archive (doi:10.1016/j.jct.2012.07.006)
